In PubChem BioAssay (NCI):
“And” between values parts separate entries of the source, which are not always exact repeats. Equal values may be shown once.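 How tested: cells in 96-well plates exposed to compound for 48 hours at five concentrations. GI50 = concentration required for 50% inhibition of growth. Definition used: TGI = concentration required for complete inhibition of growth.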

Tests used:
Test in all cases: NCI-60 cell line screen, 48 h
SK-MEL-28 melanoma = system: SK-MEL-28 melanoma
KM12 colon = system: KM12 colon
T-47D breast = system: T-47D breast
U251 CNS = system: U251 CNS
SNB-75 CNS = system: SNB-75 CNS
NCI-H522 lung = system: NCI-H522 lung
CAKI-1 renal = system: CAKI-1 renal
A498 renal = system: A498 renal
HCT-15 colon = system: HCT-15 colon
OVCAR-4 ovarian = system: OVCAR-4 ovarian

Structure (SMILES) | GI50 (SK-MEL-28 melanoma) | TGI (SK-MEL-28 melanoma) | GI50 (KM12 colon) | TGI (KM12 colon) | GI50 (T-47D breast) | TGI (T-47D breast) | GI50 (U251 CNS) | TGI (U251 CNS) | GI50 (SNB-75 CNS) | TGI (SNB-75 CNS) | GI50 (NCI-H522 lung) | TGI (NCI-H522 lung) | GI50 (CAKI-1 renal) | TGI (CAKI-1 renal) | GI50 (A498 renal) | TGI (A498 renal) | GI50 (HCT-15 colon) | TGI (HCT-15 colon) | GI50 (OVCAR-4 ovarian) | TGI (OVCAR-4 ovarian)
COc1cc2nccc(Oc3ccc(NC(=O)C4(C(=O)Nc5ccc(F)cc5)CC4)cc3)c2cc1OC | > 10 µM and 3.74 µM | > 79 µM | 0.333 µM and 0.0482 µM | > 100 µM | > 10 µM and 4.36 µM | > 100 µM | > 10 µM and 4.31 µM | > 100 µM | 0.27 µM | 8.14 µM | > 10 µM and 4.28 µM | > 45.3 µM | 5.87 µM and 3.61 µM | > 10 µM and 40.9 µM | 1.2 µM and 0.429 µM | > 10 µM and 3.43 µM | > 10 µM and 3.94 µM | > 100 µM | > 10 µM and 3.79 µM | > 62.6 µM
O=C(c1ccccc1)c1ccc(N2C(=O)C3C4c5ccccc5C(/C=C/C(=O)c5ccccn5)(c5ccccc54)C3C2=O)cc1 (stereo unspecified) |  |  | 1.88 µM | 4.39 µM | 2.75 µM | > 100 µM | 2.08 µM | 4.62 µM | 0.94 µM | > 100 µM | 2.28 µM | 6.82 µM | 8.82 µM | > 100 µM | 2.19 µM | 5.8 µM | 1.69 µM | 4.4 µM | 4.3 µM | > 100 µM
O=C1COc2c(CCNCCN(C(=O)CCNCCc3ccc(Cl)c(Cl)c3)C3CCCCC3)ccc(O)c2N1 | 14.8 µM | 29.3 µM | 19 µM | 35.5 µM | 17.3 µM | 40.1 µM | 16.3 µM | 32 µM | 3.65 µM | 19.4 µM | 15.2 µM | 32.3 µM | > 45.9 µM | > 74.9 µM | 13.9 µM | 28.4 µM | 15.7 µM | 31.2 µM | 15 µM | 28.9 µM
Nc1ccc(N)c2c1C(=O)c1cccc([N+](=O)[O-])c1C2=O | 11.5 µM | > 100 µM | 4.15 µM | > 100 µM | 6.99 µM | > 100 µM | 2.85 µM | > 100 µM | 2.13 µM | 24.5 µM | 1.46 µM | 17.9 µM | 0.549 µM | 4.07 µM | 0.125 µM | 1.03 µM | 2.16 µM | > 100 µM | 11.9 µM | > 100 µM
N#Cc1c(N/N=C/c2c(Cl)cccc2Cl)nc(N)nc1N1CCCC1 | 16.4 µM | > 100 µM | 3.02 µM | > 100 µM | > 100 µM | > 100 µM | 2.51 µM | > 100 µM | 2.01 µM | > 100 µM | 2.63 µM | 13.3 µM | 1.29 µM | > 100 µM | 0.502 µM | 3.18 µM | 0.645 µM | 20 µM | > 100 µM | > 100 µM
COC(=O)c1ccccc1NCc1cc(O)ccc1O |  | 35.4 µM |  | 53.2 µM |  | 31.8 µM |  | 40.1 µM |  | > 75.9 µM |  | 6.75 µM |  | 44.6 µM |  | > 89.2 µM |  | 41.1 µM |  | 34.9 µM
c1csc(-c2[nH]nc3c2CCc2ccccc2-3)c1 | 19.2 µM | 39.7 µM | 0.406 µM | 14.9 µM | 0.17 µM | 0.515 µM | 11.6 µM | 26.3 µM | 4.25 µM | 35 µM | 18.9 µM | 44.9 µM | 19.6 µM | 58.1 µM | 14.3 µM | 32.4 µM | 0.289 µM | 18.6 µM | 2.12 µM | 37.3 µM
Cc1c(N)nc(C2CC(=O)N2CC(N)C(N)=O)nc1C(=O)NC(C(=O)NC(C)C(O)C(C)C(=O)NC(C(=O)NCCc1nc(-c2nc(C(=O)NCCNCC(C)O)cs2)cs1)C(C)O)C(OC1OC(CO)C(O)C(O)C1OC1OC(CO)C(O)C(OC(N)=O)C1O)c1cnc[nH]1 (stereo unspecified) | > 50 µM | > 100 µM | > 50 µM | > 100 µM |  | > 5 µM | 2.53 µM | 50 µM and 24.2 µM | 3.06 µM | 23.9 µM and 6.66 µM | 0.972 µM | 10.8 µM and 7.89 µM | 0.0234 µM |  |  | > 46.6 µM | 42.7 µM | 50 µM and > 75.9 µM | 10.7 µM | 50 µM and > 100 µM
N#Cc1c(N)nc(N2CCOCC2)c(C#N)c1-c1ccc(Cl)cc1Cl | 18.4 µM | 53.1 µM |  |  | 12.9 µM | 81.4 µM | 17.4 µM | 42.4 µM | 6.31 µM | 30.4 µM | 4.77 µM | 18.4 µM | 18.6 µM | 46.8 µM | 2.68 µM | 11.1 µM | 15.5 µM | 56.4 µM | 21.8 µM | 78.2 µM
COc1ccc(Cl)cc1Nc1nc(C(F)(F)F)ccc1C(=O)N/N=C/c1ccc(Cl)cc1 | 74 µM | > 100 µM | 5.16 µM | > 100 µM | 0.971 µM | > 100 µM | 4.79 µM | 69.3 µM |  |  | 4.16 µM | 42.5 µM | 5.37 µM | 29.7 µM | 18.2 µM | > 100 µM | 2.41 µM | > 100 µM | 0.74 µM | > 100 µM
